According to the supplement of paper PMC11061612:

What was measured:
[1] = tested on: KYSE-270 (Esophageal Squamous Cell Carcinoma); experiment: Bliss excess, mean over the matrix (fraction); higher = more synergy
Procedure, shortened: (§1)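 Bliss excess equals the observed combination effect minus the expected value EA + EB − EA·EB, where EA and EB are the effects of each agent alone. Combination Emax is the second-highest inhibition within the matrix. Inhibition was scaled from CellTiter-Glo 2.0 luminescence, with 0 set by vehicle wells and 1 by blank wells, after 72 hours of two-drug dosing of cells plated in 1536-well plates.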

[2] = tested on: SK-GT-4 (Esophageal Adenocarcinoma); experiment: as above
Procedure, shortened: as §1

[3] = tested on: CW-2 (Colorectal Carcinoma); experiment: as above
Procedure, shortened: as §1

[4] = tested on: KU812 (Chronic Myelogenous Leukemia); experiment: as above
Procedure, shortened: as §1

[5] = tested on: OCI-AML3 (Acute Myeloid Leukemia); experiment: as above
Procedure, shortened: as §1

[6] = tested on: NCI-H520 (Squamous Cell Lung Carcinoma); experiment: as above
Procedure, shortened: as §1

M059J (Glioblastoma) [7] = experiment: as above
Procedure, shortened: as §1

[8] = tested on: DMS-114 (Small Cell Lung Carcinoma); experiment: as above
Procedure, shortened: as §1

[9] = tested on: MN-60 (B-Lymphoblastic Leukemia); experiment: as above
Procedure, shortened: as §1

SJSA-1 (Osteosarcoma) [10] = experiment: as above
Procedure, shortened: as §1

[11] = tested on: NCI-H526 (Small Cell Lung Carcinoma); experiment: as above
Procedure, shortened: as §1

[12] = tested on: NCCIT (Other Solid Carcinomas); experiment: as above
Procedure, shortened: as §1

[13] = tested on: ST486 (Burkitt's Lymphoma); experiment: as above
Procedure, shortened: as §1

[14] = tested on: T-T (Esophageal Squamous Cell Carcinoma); experiment: as above
Procedure, shortened: as §1

[15] = tested on: COR-L279 (Small Cell Lung Carcinoma); experiment: as above
Procedure, shortened: as §1

NCI-H2731 (Mesothelioma) [16] = experiment: as above
Procedure, shortened: as §1

[17] = tested on: VMRC-RCZ (Kidney Carcinoma); experiment: as above
Procedure, shortened: as §1

[18] = tested on: NCI-H929 (Plasma Cell Myeloma); experiment: as above
Procedure, shortened: as §1

[19] = tested on: NCI-H3122 (Lung Adenocarcinoma); experiment: as above
Procedure, shortened: as §1

[20] = tested on: MOG-G-CCM (Low Grade Glioma); experiment: as above
Procedure, shortened: as §1

[21] = tested on: KYSE-270 (Esophageal Squamous Cell Carcinoma); experiment: combination Emax (second highest fraction inhibited in the dose matrix, 72 h); higher = more inhibition; extreme values may be limits of the assay
Procedure, shortened: as §1

[22] = tested on: SK-GT-4 (Esophageal Adenocarcinoma); experiment: as above
Procedure, shortened: as §1

[23] = tested on: CW-2 (Colorectal Carcinoma); experiment: as above
Procedure, shortened: as §1

[24] = tested on: KU812 (Chronic Myelogenous Leukemia); experiment: as above
Procedure, shortened: as §1

[25] = tested on: OCI-AML3 (Acute Myeloid Leukemia); experiment: as above
Procedure, shortened: as §1

[26] = tested on: NCI-H520 (Squamous Cell Lung Carcinoma); experiment: as above
Procedure, shortened: as §1

M059J (Glioblastoma) [27] = experiment: as above
Procedure, shortened: as §1

[28] = tested on: DMS-114 (Small Cell Lung Carcinoma); experiment: as above
Procedure, shortened: as §1

[29] = tested on: MN-60 (B-Lymphoblastic Leukemia); experiment: as above
Procedure, shortened: as §1

SJSA-1 (Osteosarcoma) [30] = experiment: as above
Procedure, shortened: as §1

[31] = tested on: NCI-H526 (Small Cell Lung Carcinoma); experiment: as above
Procedure, shortened: as §1

[32] = tested on: NCCIT (Other Solid Carcinomas); experiment: as above
Procedure, shortened: as §1

[33] = tested on: ST486 (Burkitt's Lymphoma); experiment: as above
Procedure, shortened: as §1

[34] = tested on: T-T (Esophageal Squamous Cell Carcinoma); experiment: as above
Procedure, shortened: as §1

[35] = tested on: COR-L279 (Small Cell Lung Carcinoma); experiment: as above
Procedure, shortened: as §1

NCI-H2731 (Mesothelioma) [36] = experiment: as above
Procedure, shortened: as §1

[37] = tested on: VMRC-RCZ (Kidney Carcinoma); experiment: as above
Procedure, shortened: as §1

[38] = tested on: NCI-H929 (Plasma Cell Myeloma); experiment: as above
Procedure, shortened: as §1

[39] = tested on: NCI-H3122 (Lung Adenocarcinoma); experiment: as above
Procedure, shortened: as §1

[40] = tested on: MOG-G-CCM (Low Grade Glioma); experiment: as above
Procedure, shortened: as §1

Structure (SMILES) | Bliss excess [1] | Bliss excess [2] | Bliss excess [3] | Bliss excess [4] | Bliss excess [5] | Bliss excess [6] | Bliss excess (M059J (Glioblastoma) [7]) | Bliss excess [8] | Bliss excess [9] | Bliss excess (SJSA-1 (Osteosarcoma) [10]) | Bliss excess [11] | Bliss excess [12] | Bliss excess [13] | Bliss excess [14] | Bliss excess [15] | Bliss excess (NCI-H2731 (Mesothelioma) [16]) | Bliss excess [17] | Bliss excess [18] | Bliss excess [19] | Bliss excess [20] | combination Emax [21] | combination Emax [22] | combination Emax [23] | combination Emax [24] | combination Emax [25] | combination Emax [26] | combination Emax (M059J (Glioblastoma) [27]) | combination Emax [28] | combination Emax [29] | combination Emax (SJSA-1 (Osteosarcoma) [30]) | combination Emax [31] | combination Emax [32] | combination Emax [33] | combination Emax [34] | combination Emax [35] | combination Emax (NCI-H2731 (Mesothelioma) [36]) | combination Emax [37] | combination Emax [38] | combination Emax [39] | combination Emax [40]
C=CCn1c(=O)c2cnc(Nc3ccc(N4CCN(C)CC4)cc3)nc2n1-c1cccc(C(C)(C)O)n1 [AZD1775] + Nc1ccn([C@@H]2O[C@H](CO)[C@@H](O)C2(F)F)c(=O)n1 [Gemcitabine] (first compound max 1 µM, partner max 0.3 µM) | 0.0411 | 0.006 | -0.0511 | -0.0107 | 0.0084 | 0.0314 | 0.0175 | 0.0581 | -0.0157 | -0.0822 | 0.0642 | 0.0864 | 0.0019 | 0.0692 | 0.0556 | 0.0305 | 0.0417 | 0.0302 | -0.0379 | 0.0455 | 0.983 | 0.44 | 0.559 | 0.836 | 0.95 | 0.871 | 0.802 | 0.643 | 0.653 | 0.656 | 0.968 | 0.899 | 0.985 | 0.521 | 0.987 | 0.533 | 0.481 | 0.906 | 0.803 | 0.778
Cc1c2c(nn1C)CSCc1cc(n(C)n1)CSc1cc(c3ccccc3c1)OCCCc1c(C(=O)O)n(C)c3c-2c(Cl)ccc13 [AZD5991] + Nc1ccn([C@@H]2O[C@H](CO)[C@@H](O)C2(F)F)c(=O)n1 [Gemcitabine] (first compound max 1 µM, 7x7, partner max 0.3 µM) | -0.0129 | -0.042 | -0.0677 | -0.0709 | 0.0245 | -0.0389 | -0.0325 | 0.07 | -0.0611 | -0.0319 | 0.0249 | -0.0617 | 0.0089 | 0.058 | -0.012 | -0.0359 | -0.001 | 0.0087 | 0.0092 | -0.0059 | 0.965 | 0.31 | 0.613 | 0.842 | 1 | 0.811 | 0.681 | 0.908 | 0.518 | 0.725 | 0.914 | 0.725 | 0.904 | 0.929 | 0.975 | 0.358 | 0.392 | 1 | 0.922 | 0.523
C[C@@H]1COCCN1c1cc(C2([S@](C)(=N)=O)CC2)nc(-c2ccnc3[nH]ccc23)n1 [AZD6738] + Nc1ccn([C@@H]2O[C@H](CO)[C@@H](O)C2(F)F)c(=O)n1 [Gemcitabine] (first compound max 10 µM, 7x7, partner max 0.3 µM) | 0.0806 | 0.023 | 0.0109 | -0.0077 | -0.0143 | 0.0434 | 0.0209 | 0.0549 | -0.0375 | -0.0104 | 0.0678 | 0.107 | 0.0362 | 0.221 | 0.0205 | 0.0371 | 0.0193 | 0 | 0.0297 | 0.0311 | 1 | 0.585 | 0.659 | 0.853 | 0.953 | 0.916 | 0.823 | 0.78 | 0.72 | 0.722 | 0.973 | 0.839 | 0.98 | 0.897 | 0.995 | 0.511 | 0.542 | 0.906 | 0.899 | 0.783
